Results on 8 molecules are retold here after ChEMBL document CHEMBL2424541, “Anti-inflammatory effects of extracellular cyclosporins are exclusively mediated by CD147” (J Med Chem, 2013).

Calls of active or inactive are those of the source. The rule behind the calls is not given here.

Series [1] deals with T1, Peptidyl-prolyl cis-trans isomerase A (Homo sapiens, UniProt P62937). The following applies: 1 uM.
Target sequence in this assay (P62937 whole entry, looked up): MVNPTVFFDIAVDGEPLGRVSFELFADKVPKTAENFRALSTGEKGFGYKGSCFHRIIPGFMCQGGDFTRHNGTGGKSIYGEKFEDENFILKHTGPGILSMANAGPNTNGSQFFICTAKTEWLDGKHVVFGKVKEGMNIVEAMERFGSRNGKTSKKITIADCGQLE
Description: Inhibition of recombinant human CypA-mediated CD147-deficient leukocyte migration from mouse bone marrow at 1 uM after 2 hrs
Series [2] deals with Leukocyte. Put plainly: Effect on FCS-induced wild type mouse leukocytes migration from bone marrow. It is filed as functional.
For series [3], the system named is Mus musculus. Kind of series: In vivo inhibition of extracellular cyclophilin-mediated CD3+ T cells infiltration into TNCB challenged ear in C57BL6 mouse allergic contact hypersensitivity model at 4 mg/kg, ip bid administered on day 4 to 6 prior to TNCB challenge by immunohistochemical analysis. Further details: dose 4 mg/kg. The following applies: T-cell. Format: functional, organism-based.

Series [4] has as its target T1, Peptidyl-prolyl cis-trans isomerase A. The following applies: myeloid, 1 uM.
Target sequence in this assay (P62937 whole entry, looked up): as above
Description: Inhibition of recombinant human CypA-mediated CD11b+ myeloid cell migration from mouse bone marrow at 1 uM after 2 hrs
The nature of series [5]: Cellular uptake in human Jurkat T cells assessed as displacemnet of [O-(2-acetamido)-D-serine]8-cyclosporine N-{(5-aminopentyl)-[2,3,6,7-tetrahydro-11-oxo-1H,5H,11Hbenzopyrano(6,7,8-ij)quinolizine-10-carboxyl amide] from intracellular compartments at 50 fold excess after 90 mins by flow cytometric analysis. It is filed as ADME, cell-based. The following applies: 1.5 h. For orientation: In flow cytometry, cells or beads pass a laser one at a time.

Series [6] has as its system Mus musculus. Kind of series: In vivo inhibition of extracellular cyclophilin-mediated monocytes recruitment in peritoneal fluid in thioglycollate challenged CD147-deficient C57BL6 mouse peritonitis model at 20 mg/kg, ip administered 3 hrs before thioglycollate challenge measured after 18 hrs. It is filed as functional, organism-based. Further details: dose 20 mg/kg.

The species entered for a further series is Homo sapiens. Put plainly: Inhibition of calcineurin phosphatase activity (unknown origin) assessed as R2 phosphopeptide dephosphorylation up to 10 uM after 30 mins by malachite green staining assay in presence of calmodulin and CypA.
Series [7] has as its system Mus musculus. Kind of series: In vivo inhibition of extracellular cyclophilin-mediated CD3+ T cells infiltration into TNCB challenged ear in CD147-deficient C57BL6 mouse allergic contact hypersensitivity model at 4 mg/kg, ip bid administered on day 4 to 6 prior to TNCB challenge by immunohistochemical analysis. Format: functional, organism-based. Further details: dose 4 mg/kg. The following applies: T-cell.

Series [8] relates to Mus musculus. Put plainly: In vivo inhibition of extracellular cyclophilin-mediated neutrophil recruitment in peritoneal fluid in thioglycollate challenged CD147-deficient C57BL6 mouse peritonitis model at 20 mg/kg, ip administered 3 hrs before thioglycollate challenge measured after 18 hrs. Format: functional, organism-based. Further details: dose 20 mg/kg.
The target in series [9] is T1, Peptidyl-prolyl cis-trans isomerase A. The settings on record: 1 uM. The source holds these as a separate data set.
Target sequence in this assay (P62937 whole entry, looked up): as above
Description: Inhibition of recombinant human CypA-mediated leukocyte migration from mouse bone marrow at 1 uM after 2 hrs
The test system of series [10] is Leukocyte. Kind of series: Effect on fmlp-induced CD147-deficient mouse leukocytes migration from bone marrow. Format: functional.
For series [11], the system named is Mus musculus. Kind of series: In vivo inhibition of extracellular cyclophilin-mediated neutrophils recruitment in peritoneal fluid of thioglycollate challenged C57BL6 mouse peritonitis model at 20 mg/kg, ip administered 3 hrs before thioglycollate challenge measured after 18 hrs. Format: functional, organism-based. The arrangement: dose 20 mg/kg.
In series [12] the test system is Leukocyte. Kind of series: Effect on fmlp-induced wild type mouse leukocytes migration from bone marrow. It is filed as functional.
The subject of series [13] is Mus musculus. Put plainly: In vivo inhibition of extracellular cyclophilin-mediated CD11b+ myeloid cells infiltration into TNCB challenged ear in C57BL6 mouse allergic contact hypersensitivity model at 4 mg/kg, ip bid administered on day 4 to 6 prior to TNCB challenge by immunohistochemical analysis. Format: functional, organism-based. Further details: dose 4 mg/kg.

Series [14] has as its system Mus musculus. Kind of series: In vivo inhibition of extracellular cyclophilin-mediated ear swelling in CD147-deficient TNCB challenged C57BL6 mouse at 4 mg/kg, ip bid administered on day 4 to 6. Format: functional, organism-based. Further details: dose 4 mg/kg.
Series [15] relates to Mus musculus. Kind of series: In vivo inhibition of extracellular cyclophilin-mediated monocytes recruitment in peritoneal fluid of thioglycollate challenged C57BL6 mouse peritonitis model at 20 mg/kg, ip administered 3 hrs before thioglycollate challenge measured after 18 hrs. The arrangement: dose 20 mg/kg. It is filed as functional, organism-based.
Series [16] has as its system Mus musculus. Kind of series: In vivo inhibition of extracellular cyclophilin-mediated MMP-9 secretion in peritoneal fluid in thioglycollate challenged C57BL6 mouse peritonitis model at 20 mg/kg, ip administered for 3 hrs before thioglycollate challenge by gelatin zymographic analysis. Format: functional, organism-based. Further details: dose 20 mg/kg.
For series [17], the target named is T1, Peptidyl-prolyl cis-trans isomerase A. The following applies: HeLa, 2 uM.
Target sequence in this assay (P62937 whole entry, looked up): as above
Description: Inhibition of CypA-mediated ERK phosphorylation in serum-starved human HeLa cells at 2 uM after 5 mins by Western blotting analysis
Series [18] shares this target. Kind of series: Inhibition of CypA PPIase activity (unknown origin) using Glt-(Ala)n-Pro-Phe-4-nitroanilides as substrate.
Target sequence in this assay (P62937 whole entry): as the sequence (P62937 whole entry, looked up) above
Series [19] deals with Peptidyl-prolyl cis-trans isomerase C (Homo sapiens, UniProt P45877). Put plainly: Inhibition of CypC PPIase activity (unknown origin).
Sequence of Peptidyl-prolyl cis-trans isomerase C (P45877 whole entry): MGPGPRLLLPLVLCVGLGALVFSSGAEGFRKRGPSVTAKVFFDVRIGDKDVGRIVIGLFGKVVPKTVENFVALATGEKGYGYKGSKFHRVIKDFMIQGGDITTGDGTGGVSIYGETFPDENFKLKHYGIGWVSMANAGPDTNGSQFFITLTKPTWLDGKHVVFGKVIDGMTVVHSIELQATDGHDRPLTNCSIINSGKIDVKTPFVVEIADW
Series [20] deals with T1, Peptidyl-prolyl cis-trans isomerase A. The following applies: Spleen, T-cell, 1 uM.
Target sequence in this assay (P62937 whole entry, looked up): as the sequence (P62937 whole entry, looked up) above
Description: Inhibition of recombinant human CypA-mediated PMA/ionomycin-induced CD3+ T cell migration from mouse spleen at 1 uM after 2 hrs
Series [21] has as its system Mus musculus. Put plainly: In vivo inhibition of extracellular cyclophilin-mediated ear swelling in TNCB challenged C57BL6 mouse allergic contact hypersensitivity model at 4 mg/kg, ip bid administered on day 4 to 6 measured after 24 hrs. Format: functional, organism-based. Further details: dose 4 mg/kg.
Series [22] concerns Leukocyte. Kind of series: Effect on FCS-induced CD147-deficient mouse leukocytes migration from bone marrow. It is filed as functional.
Series [23] relates to Mus musculus. Put plainly: In vivo inhibition of extracellular cyclophilin-mediated CD11b+ myeloid cells infiltration into TNCB challenged ear in CD147-deficient C57BL6 mouse allergic contact hypersensitivity model at 4 mg/kg, ip bid administered on day 4 to 6 prior to TNCB challenge by immunohistochemical analysis. Further details: dose 4 mg/kg. Format: functional, organism-based.

In series [24] the test system is Mus musculus. Kind of series: In vivo inhibition of extracellular cyclophilin-mediated IL-6 secretion in peritoneal fluid in thioglycollate challenged C57BL6 mouse peritonitis model at 20 mg/kg, ip administered for 3 hrs before thioglycollate challenge by ELISA. It is filed as functional, organism-based. Further details: dose 20 mg/kg. (ELISA stands for enzyme-linked immunosorbent assay.)

A short description of series [25]: Cellular uptake in human Jurkat T cells assessed as displacemnet of [O-(2-acetamido)-D-serine]8-cyclosporine N-{(5-aminopentyl)-[2,3,6,7-tetrahydro-11-oxo-1H,5H,11Hbenzopyrano(6,7,8-ij)quinolizine-10-carboxyl amide] from intracellular compartments after 90 mins by flow cytometric analysis. Format: ADME, cell-based. The settings on record: 1.5 h.
Series [26] can be described thus: Inhibition of calcineurin phosphatase activity (unknown origin) assessed as R2 phosphopeptide dephosphorylation after 30 mins by malachite green staining assay in presence of calmodulin and CypA.

The Ki is the equilibrium dissociation constant of an inhibitor or competing ligand from its target. The low end stands for higher affinity, the high end for lower affinity. Turning to `CC[C@@H]1NC(=O)[C@H]([C@H](O)[C@H](C)Cc2nc3ccc(C(=O)O)cc3[nH]2)N(C)C(=O)[C@H](C(C)C)N(C)C(=O)[C@H](CC(C)C)N(C)C(=O)[C@H](CC(C)C)N(C)C(=O)[C@@H](C)NC(=O)[C@H](C)NC(=O)[C@H](CC(C)C)N(C)C(=O)[C@H](C(C)C)NC(=O)[C@H](CC(C)C)N(C)C(=O)CN(C)C1=O`, the inhibition entry (in [1]; in the series with Mus musculus [6]; in the series filed under Homo sapiens; with Mus musculus [7]; in the series on Mus musculus [8]; in the series on Mus musculus [14]) was “inactive” throughout. In the series on Mus musculus [23], the inhibition entry is “inactive”. Also, the result in the series on Leukocyte [2], in the series on Leukocyte [10], with Leukocyte [12] and with Leukocyte [22] was inactive. The inhibition entry (in the series with Mus musculus [3]; in series [4]; in series [9]; in the series on Mus musculus [11]; in the series on Mus musculus [13]; in the series with Mus musculus [15]) was “Active” throughout. Further, the inhibition result (in the series on Mus musculus [16]; in series [17]; in series [20]; in the series with Mus musculus [21]; in the series with Mus musculus [24]) was “Active” throughout. In addition, in [5], the Drug uptake result is on record as “Not Active”. Also, the Ki in series [18] was found to be 10.7 nM; in series [19], 118 nM.
The term IC50 denotes the point on the concentration scale where inhibition reaches its midpoint. Turning to `CC[C@@H]1NC(=O)[C@H]([C@H](O)[C@H](C)Cc2nc3ccc(C(=O)OC)cc3[nH]2)N(C)C(=O)[C@H](C(C)C)N(C)C(=O)[C@H](CC(C)C)N(C)C(=O)[C@H](CC(C)C)N(C)C(=O)[C@@H](C)NC(=O)[C@H](C)NC(=O)[C@H](CC(C)C)N(C)C(=O)[C@H](C(C)C)NC(=O)[C@H](CC(C)C)N(C)C(=O)CN(C)C1=O`, the Drug uptake entry in series [25] is reported as “Active”. For the same molecule, the IC50 in series [26] worked out at 6900 nM. The Ki in [18] is 11.8 nM.
Turning to `CC[C@@H]1NC(=O)[C@H]([C@H](O)[C@H](C)Cc2nc3ccc(C(C)C)cc3[nH]2)N(C)C(=O)[C@H](C(C)C)N(C)C(=O)[C@H](CC(C)C)N(C)C(=O)[C@H](CC(C)C)N(C)C(=O)[C@@H](C)NC(=O)[C@H](C)NC(=O)[C@H](CC(C)C)N(C)C(=O)[C@H](C(C)C)NC(=O)[C@H](CC(C)C)N(C)C(=O)CN(C)C1=O`, in [25], the Drug uptake entry is on record as “Active”. Besides, in series [26], the IC50 was above 10000 nM. Also, the affinity in series [18] corresponds to a Ki of 43.9 nM.
As for `CC[C@@H]1NC(=O)[C@H]([C@H](O)[C@H](C)Cc2nc3ccccc3c(=O)[nH]2)N(C)C(=O)[C@H](C(C)C)N(C)C(=O)[C@H](CC(C)C)N(C)C(=O)[C@H](CC(C)C)N(C)C(=O)[C@@H](C)NC(=O)[C@H](C)NC(=O)[C@H](CC(C)C)N(C)C(=O)[C@H](C(C)C)NC(=O)[C@H](CC(C)C)N(C)C(=O)CN(C)C1=O`, the Drug uptake result in [25] is recorded as “Active”. Besides, the IC50 in series [26] is 4600 nM.
Take `CC[C@@H]1NC(=O)[C@H]([C@H](O)[C@H](C)Cc2nc3ccccc3s2)N(C)C(=O)[C@H](C(C)C)N(C)C(=O)[C@H](CC(C)C)N(C)C(=O)[C@H](CC(C)C)N(C)C(=O)[C@@H](C)NC(=O)[C@H](C)NC(=O)[C@H](CC(C)C)N(C)C(=O)[C@H](C(C)C)NC(=O)[C@H](CC(C)C)N(C)C(=O)CN(C)C1=O`: the Drug uptake result in [25] is “Active”. Further, the IC50 in series [26] is 4500 nM. The molecule further yielded a Ki in series [18] of 36.6 nM.
For `CC[C@@H]1NC(=O)[C@H]([C@H](O)[C@H](C)Cc2nc3ccccc3[nH]2)N(C)C(=O)[C@H](C(C)C)N(C)C(=O)[C@H](CC(C)C)N(C)C(=O)[C@H](CC(C)C)N(C)C(=O)[C@@H](C)NC(=O)[C@H](C)NC(=O)[C@H](CC(C)C)N(C)C(=O)[C@H](C(C)C)NC(=O)[C@H](CC(C)C)N(C)C(=O)CN(C)C1=O`, the Drug uptake result in series [25] is given as “Active”. Also, the IC50 in [26] was 1200 nM.
Turning to `CC[C@@H]1NC(=O)[C@H]([C@H](O)[C@H](C)Cc2nc3ccc(C)cc3[nH]2)N(C)C(=O)[C@H](C(C)C)N(C)C(=O)[C@H](CC(C)C)N(C)C(=O)[C@H](CC(C)C)N(C)C(=O)[C@@H](C)NC(=O)[C@H](C)NC(=O)[C@H](CC(C)C)N(C)C(=O)[C@H](C(C)C)NC(=O)[C@H](CC(C)C)N(C)C(=O)CN(C)C1=O`, in series [25], the Drug uptake entry was “Active”. Moreover, in series [26], the IC50 came to 3400 nM. Also, in series [18], the Ki came to 12.4 nM.
As to `CC[C@@H]1NC(=O)[C@H]([C@H](O)[C@H](C)CC2=Nc3ccccc3CN2)N(C)C(=O)[C@H](C(C)C)N(C)C(=O)[C@H](CC(C)C)N(C)C(=O)[C@H](CC(C)C)N(C)C(=O)[C@@H](C)NC(=O)[C@H](C)NC(=O)[C@H](CC(C)C)N(C)C(=O)[C@H](C(C)C)NC(=O)[C@H](CC(C)C)N(C)C(=O)CN(C)C1=O`, in the series filed under Homo sapiens, the inhibition result is “inactive”. In addition, the Drug uptake result in [25] is recorded as “Active”.
